Test results taken from patent publication US20070264191A1, “Materials and Methods Relating to the Treatment of Glioblastomas” (priority 2004, published 2007).
Peptide text beside a SMILES is read from it.

Assays:
U87MG glioma cell line = conditions: Spear et al., 2001; cited from earlier work
other glioma cells = conditions: Spear et al., 2001; cited from earlier work
SF767 glioma xenograft = assay: In vivo fluorescent peptide binding assay, intratumoral injection; conditions: SCID mice, 100 μg lissamine-rhodamine conjugated peptide intratumorally, 20 min, FIG. 6
Experimental: SF767-tumor bearing mice were randomized into 2 groups (2 per group). Fifty microliter of 100 μg of lissamine rhodamine conjugated (K16)-MG11 or (K16)-H42 was injected intratumorally into 2 mice harboring the tumor, and allowed to circulate for 20 min. After 20 min, the mice were anethesized and perfused through the heart with PBS followed by 4% paraformaldehyde. The tumor were dissected and prepared for cryostat sections. The sections were then counterstained in FITC-phalloidin and mounted. Images were examined using LSM 510 meta confocal microscope (Carl Zeiss Microscopy, Göttingen, Germany) with appropriate filters.
After 20 min of circulation, the mouse bearing the SF767 glioma xenograft was perfused and tumor was harvested. The tumor sections were counterstained with FITC-labeled phalloidin, which stains F-actin, to determine the cell surface.

[1] = test system: SF767, U251MG, and M059K human glioma cell lines; assay: In vitro fluorescent peptide binding assay, glioma cell lines; conditions: lissamine-rhodamine conjugated peptide, 100 ng, 20 min, 37° C., FIG. 4
Experimental: (§1) For in vitro binding assay, 1×10^5 cells were seeded into each well of a 24-well dish (Nunc, Roskilde, Denmark). After culturing the cells overnight at 37° C., the cells were washed once with PBS, followed by incubating in blocking buffer containing PBS with 1% BSA at room temperature for 1 h. The cells were washed twice with PBS. One hundred nanogram of lissamine-rhodamine conjugated peptide (Mimotopes, Victoria, Australia) were added to the blocking buffer containing 0.1% sodium azide, and incubated with the cells at 37° C. for 20 min. This is followed by 5 washes of PBS with 0.1% Tween-20 at RT for 5 min intervals. The cells were then fix in 4% paraformaldehyde, followed by counterstaining using FITC-phalloidin (Sigma-Aldrich Corp., St. Louis, Mo.) and mounted. Images were captured digitally and analyzed using LSM 510 confocal microscope (Carl Zeiss Microscopy, Gottingen, Germany) with appropriate filters.
(§2) To determine the direct specific binding of the (K16)-MG11 peptide to cell surface of glioma cells, (K16)-MG11 peptide was conjugated to lissamine rhodamine. After incubating the conjugated (K16)-MG11 to the various tumor cell lines, SF767, U251MG, M059K, A549, HepG2, and HK1, for 20 minutes at 37° C., the cells were examined under confocal microscopy and the level of fluorescence detected were compared between glioma and non-glioma cells. […]

SF767 glioma cells = assay: Transfection with peptide/pNGVL-Luc complexes, luciferase activity, SF767; type: cell-based, human
Experimental: The formation and transfection of peptide/DNA complexes were carried out according to Patel et al. with slight modifications. […] […] […] The peptide was added dropwise to the DNA solution while vortexing gently (Stuart Scientific, UK). This mixture was allowed to incubate at room temperature (RT) for 30 min. After 30 min, the mixture was diluted to 4 μg/ml DNA with DMEM in the presence of 100 μM of chloroquine, and added to cells.
The human tumor cell lines, dGli36, SF767, U251, A549, HeLa, HepG2, and CNE2 were cultured in DMEM supplemented with 10% fetal bovine serum (FBS) (Hyclone Laboratories, Logan, Utah). For transfection, 3×10^5 cells were seeded into each well of a six-well plate (Nunc, Roskilde, Denmark). After culturing the cells overnight, the cells were washed twice with PBS. Freshly prepared peptide/DNA complexes were added into each well and incubated for 2 h at 37° C. For transfection performed in the presence of serum, FBS was added to a final concentration of 10% directly after addition of peptide/DNA complexes to each well. The reporter gene activity was assayed after 24 h or 48 h.
Cells were harvested from 6-well plates 24 h or 48 h following transfection, washed, resuspended in 120 μl of Tris-HCl (pH 7.8), and freeze-thawed three times. Cell debris was discarded following centrifugation at 14,000 g at 4° C. for 10 min. One hundred μl of the supernatant collected was used for assaying luciferase activity using the Auto-Lumat LB952 luminometer (EG&G Berthold, Bad Wildbad, Germany). Five microliter of the supernatant collected was used for the determination of protein concentration using the Bio-Rad protein assay dye reagent (Bio-Rad Laboratories, Hercules, USA) with the Ultrospec 3000 UV/visible spectrophotometer (Amersham Biosciences AB, Uppsala, Sweden).

[2] = test system: non-glioma cell lines (A549, HepG2, HK1); assay: In vitro fluorescent peptide binding assay, non-glioma cell lines; parameters: species or system human; conditions: lissamine-rhodamine conjugated peptide, 100 ng, 20 min, 37° C., FIG. 4
Experimental: as §1, §2

MCPKHPLGC
binding specificity (U87MG glioma cell line): specific for U87MG glioma cell line | binding (other glioma cells): did not bind

poly-L-lysine-SIPVKFNKP-H42 [(K16)-H42]
red fluorescence in tumor cryostat sections (SF767 glioma xenograft): red fluorescent was not detected | cell surface fluorescence (confocal microscopy) [1]: non-specific red fluorescence was observed in all cell lines | luciferase expression (SF767 glioma cells; complex with pNGVL-Luc, chloroquine, 48 h post transfection, FIG. 3C): 8444 RLU/μg | luciferase expression at various peptide to DNA ratios (SF767 glioma cells; ratios 1:2, 2:1, 10:1, 20:1, 24 h post-transfection, FIG. 3A): no significant binding could be detected | cell surface fluorescence (confocal microscopy) [2]: non-specific red fluorescence was observed in all cell lines

CC[C@H](C)[C@H](NC(=O)[C@H](CO)NC(=O)[C@H](CCCCN)NC(=O)[C@H](CCCCN)NC(=O)[C@H](CCCCN)NC(=O)[C@H](CCCCN)NC(=O)[C@H](CCCCN)NC(=O)[C@H](CCCCN)NC(=O)[C@H](CCCCN)NC(=O)[C@H](CCCCN)NC(=O)[C@H](CCCCN)NC(=O)[C@H](CCCCN)NC(=O)[C@H](CCCCN)NC(=O)[C@H](CCCCN)NC(=O)[C@H](CCCCN)NC(=O)[C@H](CCCCN)NC(=O)[C@H](CCCCN)NC(=O)[C@@H](N)CCCCN)C(=O)N1CCC[C@H]1C(=O)N[C@H](C(=O)N[C@@H](CCCCN)C(=O)N[C@@H](Cc1ccccc1)C(=O)N[C@@H](CC(N)=O)C(=O)N[C@@H](CCCCN)C(=O)N1CCC[C@H]1C(=O)N[C@@H](CC(C)C)C(=O)N[C@@H](Cc1c[nH]c2ccccc12)C(=O)N[C@@H](C)C(=O)N[C@H](C(=O)N[C@@H](Cc1ccccc1)C(=O)N1CCC[C@H]1C(=O)N1CCC[C@H]1C(=O)N[C@@H](CCCNC(=N)N)C(=O)N1CCC[C@H]1C(=O)N1CCC[C@H]1C(=O)N[C@@H](Cc1c[nH]c2ccccc12)C(=O)N[C@@H](CC(C)C)C(=O)O)[C@@H](C)O)C(C)C [(K16)-MG11, poly-L-lysine-SIPVKFNKP-MG11] (H-KKKKKKKKKKKKKKKKSIPVKFNKPLWATFPPRPPWL-OH)
toxicity to treated cells (SF767 glioma cells; peptide: DNA ratios of 10:1 and 20:1): toxicity could be detected
